Measured values from publication PMC11724075, “Small-molecule-induced ERBB4 activation to treat heart failure” (Nature Communications, 2025).
Where “and” joins values, the source holds several entries; their conditions need not be identical. Identical values can stand only once.

Tests used:
iAMs = test: Cardiomyocyte hypertrophy assay: CSA of iAMs after AngII, also with PD98059; type: cell-based, rat
Method: iAMs were seeded at a density of 10^4 cells/well in differentiation medium in 24-well plates (Greiner Bio-One, 662160) and differentiated over 9 days (d0 = day of seeding). […] To determine CSA, cells were fixed with 4% paraformaldehyde (PFA, Thermo Fisher Scientific, 043368.9 M) for 30 min at 4 °C. Cells were washed thrice with PBS and permeabilized by incubation with 0.1% Triton X-100 (Merck, 10789704001) for 10 min at RT. iAMs were stained with Alexa Fluor 568 phalloidin (Thermo Fisher Scientific, A12380) in 1% BSA-PBS solution for 1 h at RT. After washing 3 times with PBS, DAPI (Merck, D9542) was added. Images were obtained by fluorescence microscopy (Celena S).
CSA was quantified using an automated algorithm, custom-made in Python[67]. The mode mD (maximum of the histogram) of DAPI intensities (excluding 0) was determined and binary segmentation of nuclei was created with threshold mD + SDD (with SDD the SD of DAPI intensities). Distinct objects with an area less than 500 pixels and nuclei where the average overlapping iAM signal was less than mdA + 0.5 SDA (with mdA and SDA the median and SD of the Alexa Fluor 568 intensity, respectively) were removed. […]

ERBB2/ERBB4 = molecular target: T1, ERBB2/ERBB4 (Homo sapiens, UniProt Q15303); test: PathHunter U2OS ERBB2/ERBB4 dimerization assay; type: cell-based; settings: for ERBB4/ERBB2 dimerization signal: relative to signal with 0.1 µM NRG1, single biological replicates
T1 construct: host or cells: U2OS (osteosarcoma cells), PathHunter engineered line
Method: PathHunter U2OS ERBB4/ERBB4 (osteosarcoma cells; Eurofins, 93-0961C3), U2OS ERBB2/ERBB4 (osteosarcoma cells; Eurofins, 493-0960C3), ERBB2/ERBB3 (osteosarcoma cells; Eurofins, 93-1042C3) and ERBB1/ERBB1 (osteosarcoma cells; Eurofins, 93-0989C3) dimerization cell lines were cultured according to the manufacturer’s instructions. Briefly, cells were cultured in Cell Culture Reagent 103 (Eurofins, 92-3103 G) supplemented with 250 µg/mL Hygromycin B (Eurofins, 92-0029) and 500 µg/mL G418 (Eurofins, 92-0030), and were maintained at 37 °C in humidified atmosphere of 5% CO2. HCFs (Innoprot, P10454) were cultured in fibroblast medium (Innoprot, P60108) supplemented with 10% (v/v) fetal bovine serum (FBS, Innoprot), 10% (v/v) fibroblast growth supplement (Innoprot), and 1% (v/v) penicillin/streptomycin solution (Innoprot). iAMs[33] (kindly provided by LUMC) were cultured in Advanced DMEM F-12 (Thermo Fisher Scientific, 12634028) supplemented with 2% (v/v) heat-inactivated FBS (Thermo Fisher Scientific, 10270106), 1% (v/v) penicillin/streptomycin (10,000 units/mL and 10 mg/mL respectively, Thermo Fisher Scientific, 15140122), 1× GlutaMAX (Thermo Fisher Scientific, 35050061), and 100 ng/mL doxycycline (Tocris, 4090) for proliferation. To induce differentiation, iAMs were transferred to medium without doxycycline.
U2OS ERBB4/ERBB4 dimerization cells were seeded at a density of 5 × 10^4 cells/well in 100 µL Cell Plating 0 Reagent, in white 96-well plates (PerkinElmer, 6005680) and incubated for 24 h at 37 °C, 5% CO2. […] Next, 110 µL PathHunter Flash Detection Reagent was added to each well and incubated at RT for 1 h after which the luminescence signal was measured using the Luminoskan Ascent (Thermo Fisher Scientific). […] The same experimental set-up was used for the U2OS ERBB2/ERBB4, U2OS ERBB2/ERBB3 and U2OS ERBB1/ERBB1 dimerization cell lines.

T1 sequence (Q15303 26-1308): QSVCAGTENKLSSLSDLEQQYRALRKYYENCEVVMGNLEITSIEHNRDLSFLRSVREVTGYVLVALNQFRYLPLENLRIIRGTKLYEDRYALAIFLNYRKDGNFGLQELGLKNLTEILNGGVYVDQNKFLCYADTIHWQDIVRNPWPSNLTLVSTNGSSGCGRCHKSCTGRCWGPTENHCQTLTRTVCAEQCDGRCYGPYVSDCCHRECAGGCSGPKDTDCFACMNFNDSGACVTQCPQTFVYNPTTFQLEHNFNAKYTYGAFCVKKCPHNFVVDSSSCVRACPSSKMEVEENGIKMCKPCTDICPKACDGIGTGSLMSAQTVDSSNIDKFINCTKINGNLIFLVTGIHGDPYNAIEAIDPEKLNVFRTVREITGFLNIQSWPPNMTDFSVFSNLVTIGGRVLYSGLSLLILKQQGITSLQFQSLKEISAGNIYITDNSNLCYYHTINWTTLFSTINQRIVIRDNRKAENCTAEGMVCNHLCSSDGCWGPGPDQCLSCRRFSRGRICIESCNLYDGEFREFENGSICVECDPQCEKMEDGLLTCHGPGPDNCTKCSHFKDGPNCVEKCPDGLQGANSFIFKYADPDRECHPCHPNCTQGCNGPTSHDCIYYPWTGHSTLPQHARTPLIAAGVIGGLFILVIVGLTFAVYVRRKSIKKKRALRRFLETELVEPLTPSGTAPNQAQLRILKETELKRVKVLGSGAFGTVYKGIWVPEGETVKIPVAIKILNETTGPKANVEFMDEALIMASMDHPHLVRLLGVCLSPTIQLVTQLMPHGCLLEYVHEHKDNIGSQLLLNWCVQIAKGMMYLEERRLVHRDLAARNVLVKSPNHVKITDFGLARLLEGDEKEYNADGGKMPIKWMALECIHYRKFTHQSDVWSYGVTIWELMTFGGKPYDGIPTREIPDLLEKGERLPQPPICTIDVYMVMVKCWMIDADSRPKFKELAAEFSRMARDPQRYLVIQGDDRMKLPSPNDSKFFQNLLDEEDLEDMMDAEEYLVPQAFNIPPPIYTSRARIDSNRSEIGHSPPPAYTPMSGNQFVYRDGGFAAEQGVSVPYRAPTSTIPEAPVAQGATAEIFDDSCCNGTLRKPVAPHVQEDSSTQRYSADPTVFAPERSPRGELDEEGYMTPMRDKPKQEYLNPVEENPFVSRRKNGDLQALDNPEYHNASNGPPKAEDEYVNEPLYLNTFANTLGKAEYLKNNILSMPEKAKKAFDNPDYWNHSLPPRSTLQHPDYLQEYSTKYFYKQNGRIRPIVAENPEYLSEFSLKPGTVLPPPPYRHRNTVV
T1 sequence (P04626 23-1255 partner): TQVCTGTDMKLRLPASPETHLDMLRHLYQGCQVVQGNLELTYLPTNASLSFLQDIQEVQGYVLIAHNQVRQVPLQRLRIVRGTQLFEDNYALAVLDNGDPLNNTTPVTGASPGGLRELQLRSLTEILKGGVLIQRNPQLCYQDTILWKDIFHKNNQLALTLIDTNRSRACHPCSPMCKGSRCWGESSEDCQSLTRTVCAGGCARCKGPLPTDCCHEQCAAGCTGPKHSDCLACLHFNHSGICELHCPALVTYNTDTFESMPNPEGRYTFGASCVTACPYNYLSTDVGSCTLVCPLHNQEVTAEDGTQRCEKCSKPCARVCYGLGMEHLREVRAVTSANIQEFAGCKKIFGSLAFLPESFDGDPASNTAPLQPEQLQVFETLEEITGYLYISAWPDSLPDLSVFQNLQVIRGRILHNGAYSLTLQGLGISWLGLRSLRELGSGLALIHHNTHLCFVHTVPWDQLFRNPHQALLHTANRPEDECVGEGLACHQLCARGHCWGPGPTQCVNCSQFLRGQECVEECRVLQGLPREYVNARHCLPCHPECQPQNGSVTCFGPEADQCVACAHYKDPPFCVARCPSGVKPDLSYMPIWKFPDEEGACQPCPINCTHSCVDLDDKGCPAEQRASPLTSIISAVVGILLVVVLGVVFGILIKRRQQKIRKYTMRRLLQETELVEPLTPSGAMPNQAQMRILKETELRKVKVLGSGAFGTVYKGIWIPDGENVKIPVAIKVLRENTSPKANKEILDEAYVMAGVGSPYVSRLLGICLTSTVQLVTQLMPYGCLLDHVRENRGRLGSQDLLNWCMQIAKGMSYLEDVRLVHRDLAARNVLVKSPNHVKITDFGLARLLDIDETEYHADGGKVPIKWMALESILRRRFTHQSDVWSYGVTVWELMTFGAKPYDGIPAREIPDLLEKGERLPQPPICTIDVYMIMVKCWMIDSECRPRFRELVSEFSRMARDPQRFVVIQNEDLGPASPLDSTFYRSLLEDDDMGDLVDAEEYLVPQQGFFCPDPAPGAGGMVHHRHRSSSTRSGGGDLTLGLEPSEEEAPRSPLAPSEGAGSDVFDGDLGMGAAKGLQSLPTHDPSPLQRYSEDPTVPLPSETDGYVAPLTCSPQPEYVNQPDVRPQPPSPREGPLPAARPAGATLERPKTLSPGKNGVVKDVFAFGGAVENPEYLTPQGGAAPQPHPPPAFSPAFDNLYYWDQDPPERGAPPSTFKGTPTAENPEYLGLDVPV

O=C(NC1CC1)C(Sc1nc2ccccc2c(=O)n1C1CCCC1)c1ccccc1 (stereo not drawn) [EF-1]
anti-hypertrophic effect of EF-1 under ERK1/2 pathway inhibition (PD98059) (in words) (iAMs): blocked upon inhibition of the ERK1/2 pathway
effect on AngII-induced increase in CSA (in words) (iAMs; EF-1 4–32 µM): dose-dependently attenuated
EC50 (ERBB2/ERBB4): > 32 µM
ERBB4/ERBB2 dimerization signal (ERBB2/ERBB4; 3.125e-8 M): 0
ERBB4/ERBB2 dimerization signal (ERBB2/ERBB4; 6.25e-8 M): 10.52 and 1.76 and 3.95 and -0.62 and 8.84 and 32.1 and -4.84 and 13.1
ERBB4/ERBB2 dimerization signal (ERBB2/ERBB4; 1.25e-7 M): 11.16 and 1.7 and 0.22 and 2.37 and 10.84 and 42.31 and 0.8 and 15.8
ERBB4/ERBB2 dimerization signal (ERBB2/ERBB4; 2.5e-7 M): 14.28 and 2.37 and -0.2 and 2.18 and 11.16 and 44.62 and 2.21 and 32.89
ERBB4/ERBB2 dimerization signal (ERBB2/ERBB4; 5e-7 M): 15.8 and 3.34 and -0.84 and 2.5 and 14.03 and 46.76 and 10.28 and 38.19
ERBB4/ERBB2 dimerization signal (ERBB2/ERBB4; 1e-6 M): 17.47 and 6.72 and 2.79 and 5.79 and 18.63 and 53.25 and 13.21 and 49.02
ERBB4/ERBB2 dimerization signal (ERBB2/ERBB4; 2e-6 M): 23.23 and 10.36 and 6.17 and 10.55 and 22.36 and 58.49 and 25.9 and 62.1
ERBB4/ERBB2 dimerization signal (ERBB2/ERBB4; 4e-6 M): 39.65 and 19.88 and 18.63 and 20.82 and 41.51 and 62.22 and 30.3 and 62.16
ERBB4/ERBB2 dimerization signal (ERBB2/ERBB4; 8e-6 M): 43.57 and 23.14 and 20.33 and 27.19 and 40.97 and 69.15 and 32.21 and 63.74
ERBB4/ERBB2 dimerization signal (ERBB2/ERBB4; 1.6e-5 M): 49.69 and 37.91 and 30.09 and 36.81 and 54.68 and 124.7 and 60.3 and 94.64
ERBB4/ERBB2 dimerization signal (ERBB2/ERBB4; 3.2e-5 M): 99.26 and 72.09 and 64.59 and 71.61 and 99.65 and 139.93 and 119.85 and 114.61
efficacy in ERBB2/ERBB4 dimerization assay at the highest concentration (in words) (ERBB2/ERBB4; highest concentration): like the natural ligand NRG1
